# Laboratory results as given in PubChem BioAssay (NCI).
#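 Five concentrations, 48 hours, 96-well plates. At the TGI there is no net growth.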
# Experiments:
# Assay in all cases: growth of human tumour cells (NCI), 48 h
# DLD-1 colon = system: DLD-1 colon
# HOP-18 NSCLC = system: HOP-18 NSCLC
# LXFL 529 NSCLC = system: LXFL 529 NSCLC
# RXF-631 renal = system: RXF-631 renal
# SNB-78 CNS = system: SNB-78 CNS
# XF 498 CNS = system: XF 498 CNS
# MDA-N = system: MDA-N
# T-47D breast = system: T-47D breast
# M19-MEL melanoma = system: M19-MEL melanoma
SMILES,TGI (DLD-1 colon),TGI (LXFL 529 NSCLC),TGI (SNB-78 CNS),TGI (MDA-N),TGI (T-47D breast),TGI (M19-MEL melanoma),other results
CC12C3CC4C5CC(C(C53)[C@@H]1NCc1ccccc1)C42 (stereo partly specified),> 100 µM,> 100 µM,> 100 µM,–,–,–,TGI (HOP-18 NSCLC): > 100 µM; TGI (RXF-631 renal): > 100 µM; TGI (XF 498 CNS): > 100 µM
CCOc1cc(C2SCC(=O)N2c2ccc3c(c2)Oc2c(Cl)c4c(c(Cl)c2=N3)Oc2cc(N3C(=O)CSC3c3ccc(O)c(OCC)c3)ccc2N=4)ccc1O (stereo unspecified),–,–,–,> 100 µM,> 100 µM,–,–
Cc1ccc(N=C2OP(=O)(Nc3ccc(C)cc3)Oc3ccccc32)cc1 (stereo unspecified),–,–,–,> 100 µM,> 100 µM,–,–
Cc1c(C(=O)Nc2ccccc2)nnn1-c1ccnc2cc(C(F)(F)F)ccc12,–,–,–,> 100 µM,> 100 µM,–,–
N#Cc1sc2c(c1OC(=O)c1ccc(Cl)cc1Cl)c(=O)n(-c1ccccc1)c(=S)n2-c1ccccc1,–,–,–,–,> 100 µM,–,–
CCOC(=O)[C@@]1(C(C)=O)CC(C)=C(C)C[S@]1=O,–,–,–,> 100 µM,> 100 µM,–,–
O=C1CCC2(CC1CCS(=O)c1ccccc1)OCCO2 (stereo unspecified),–,–,–,> 100 µM,> 100 µM,–,–
CC(C)c1cccc(C(C)C)c1NC(=O)C(=O)C1CCC2=C(Sc3ccccc3N2)C1=O (stereo unspecified),> 100 µM,> 100 µM,> 100 µM,–,–,> 100 µM,TGI (HOP-18 NSCLC): > 100 µM; TGI (RXF-631 renal): > 100 µM
Cc1cccc2c(NCCN(C)C)c3cccc(C(=O)NCCN(C)C)c3nc12,–,–,–,0.9 µM,19.7 µM,–,–
Cc1nc(C)c(N2CCN(S(N)(=O)=O)CC2)c(=O)[nH]1,–,–,–,–,> 100 µM,–,–
CC(C)=NOC(=O)OC[C@H]1O[C@@H](n2cnc3c(N)ncnc32)C(O)C1O (stereo partly specified),–,–,–,> 100 µM,> 100 µM,–,–
COC(=O)/C(=N\NC(N)=O)C(C#N)c1ccccc1 (stereo unspecified),> 100 µM,> 100 µM,> 100 µM,–,–,> 100 µM,TGI (HOP-18 NSCLC): > 100 µM; TGI (XF 498 CNS): > 100 µM
COC(=O)N/N=C(\C)CC(=O)Nc1cccc([N+](=O)[O-])c1,> 100 µM,> 100 µM,> 100 µM,–,–,> 100 µM,TGI (XF 498 CNS): > 100 µM
COc1ccc2c(=O)c3c([nH]c2c1)OCC3=O,–,–,–,–,> 100 µM,–,–
CCCCCCCC(=O)OC[C@H](C[As](=O)(O)O)OC(=O)CCCCCCC,28 µM,21.7 µM,44.3 µM,–,–,27.2 µM,TGI (HOP-18 NSCLC): 49.2 µM
Cc1cc(C#N)c(Nc2ccc(F)cc2[N+](=O)[O-])s1,–,–,–,> 100 µM,> 100 µM,–,–
Cn1ccc(=NS(=O)(=O)c2ccccc2)cc1,> 100 µM,> 100 µM,> 100 µM,–,–,> 100 µM,TGI (HOP-18 NSCLC): > 100 µM; TGI (RXF-631 renal): > 100 µM; TGI (XF 498 CNS): > 100 µM
NNC(=O)CC(=O)Nc1ccc(S(=O)(=O)c2ccc(NC(=O)CC(=O)NN)cc2)cc1,–,–,–,–,> 100 µM,–,–
COCN1C(=N)C(C(=O)OC(C)(C)C)=C2C=C(O)C=CC21C (stereo unspecified),–,–,–,31.9 µM,9.93 µM,–,–
CS(=O)(=O)NNS(=O)(=O)c1ccc(F)cc1,> 100 µM,> 100 µM,–,–,–,> 100 µM,TGI (RXF-631 renal): > 100 µM
